Results on six compounds are retold here after paper PMC4768221, “Subcellular localization of anthracyclines in cultured rat cardiomyoblasts as possible predictors of cardiotoxicity” (Investigational New Drugs, 2015).

Where two headings read alike, the source gives them in different places.

In series [1] the test system is double-stranded calf thymus DNA. Put plainly: Ethidium bromide displacement assay (affinity to DNA). The format is binding. The conditions noted are these: for Kapp (apparent DNA binding constant): ethidium bromide displacement, mean of three ± S.D.; for Kapp relative to parent drug (times lower): vs DOX or DRB. The procedure: The binding of the anthracyclines to double-stranded calf thymus DNA was tested by the ethidium bromide displacement assay. This method is based on the competition between the tested compound and ethidium bromide for DNA intercalation sites. The fluorescence intensity of ethidium bromide increases upon DNA binding. Addition of a compound displacing intercalated ethidium bromide leads to quenching of the fluorescence of the DNA/ethidium bromide complex. The percentage of initial fluorescence was plotted against the concentration of the added compound, and the IC50 value was read. The IC50 value is defined as the concentration of added compound required to reduce the fluorescence of the DNA/ethidium bromide complex to 50 %. IC50 values were then used to calculate the apparent binding constants of the anthracyclines to DNA.

For series [2], the system named is H9c2(2-1) cells. Put plainly: Cellular uptake (fluorimetric, ethanol/HCl extraction). The format is cell-based, rat. The conditions noted are these: 10 μM, 1 h; for Accumulation relative to parent drug (times higher): vs DOX or DRB. The procedure:
Anthracycline uptake was estimated by fluorimetric measurements after the drugs were extracted with an ethanol/HCl mixture as described by Riganti et al.. H9c2(2-1) cells (2 × 10^5) were seeded onto 40 × 11 mm tissue culture dishes for 24 h. Then, the cells were treated in growth medium with 10 μM anthracycline solution at 37 °C for 1 h. After this time, the cells were gently scraped and suspended in 5 ml of ice-cold PBS. The cell suspension aliquots were centrifuged at 1500 rpm for 5 min and then washed twice in ice-cold PBS. Next, cell pellets were collected and resuspended in 2 ml of a 1:1 mixture of ethanol:0.3 M HCl, and the fluorescence intensities of these suspensions were measured at 20 °C using a Perkin-Elmer LS 55 spectrofluorimeter. The optimal excitation and emission wavelengths were 485 and 590 nm, respectively. To estimate the drug concentrations, calibration curves in the concentration range of 0.01–0.5 μM were prepared. Because the fluorescence was quenched slightly in the presence of cells, each point of the calibration curves was measured in the presence of 2 × 10^5 cells suspended in a mixture of ethanol/HCl.

Series [3] deals with H9c2(2-1) cells. Put plainly: Cell cycle analysis by flow cytometry. The format is cell-based, rat. The conditions noted are these: for Cells in G2/M phase / Cells in S phase / Cells in G0/G1 phase: 24 h treatment at equitoxic concentration (IC50); for Cells in G2/M phase: untreated control 8.7 %; for Cells in S phase: untreated control 11 %; for Cells in G0/G1 phase: untreated control 80.1 %; for Cell cycle arrest pattern: 24 h treatment at IC50, data not shown. The procedure: The cell cycle was analyzed by flow cytometry using a Becton-Dickinson FACSCanto II flow cytometer. H9c2(2-1) cells were seeded at 1 × 10^4 cells/cm^2 in 10 cm^2 culture flasks. After the cells were allowed to grow for 24 h, the medium was replaced and the cells were treated with an equitoxic anthracycline concentration corresponding to IC50. Treatment was performed for 24 h, and then the cells were washed in PBS and trypsinized. After the cells were washed in PBS again, they were fixed in 70 % ethanol and incubated for 1 h on ice. Fixed cells were washed twice in PBS, resuspended in commercially available propidium iodide staining solution and then subjected to flow cytometric assay. The percentages of H9c2(2-1) cells present in G1, S, and G2 phases of the cell cycle after drug treatment were analyzed using FACSDiva 6.1 software.
For orientation: Flow cytometry measures light scatter and fluorescence of single cells or particles in a stream.

The nature of series [4]: Cytotoxicity assay (MTT, inhibition of cell proliferation). The format is cell-based, rat. The conditions noted are these: rat. The procedure:
(§1) The cytotoxic activity of the drugs was assayed by measuring their inhibitory effects on H9c2(2-1) cell proliferation. To measure the cytotoxicity of doxorubicin, daunorubicin, and their analogs, the tetrazolium dye method was used. Cells were seeded at 1 × 10^4 cells/well in 48-well plates. After 24 h, the cells were incubated with different concentrations of anthracyclines for 72 h in triplicate in a final volume of 1 ml. Then, 50 μl of a sterile aqueous solution of 3-[4,5-dimethylthiazol-2-yl]-2,5-diphenyl-tetrazolium bromide (5 mg/ml) (Sigma-Aldrich) was added to each well for an additional 3 h. The blue formazan precipitate was dissolved in DMSO (Sigma-Aldrich), and the absorbance of solutions was measured at 540 nm. For each experiment, determinations were performed in three replicates. The IC50 values (the anthracycline concentration effective at inhibiting cell growth after exposure to the drug for 72 h) were read from survival curves, which were fitted to an exponential equation using Xact v. 7.2, a statistical software tool by SciLab (Germany).

Details of series [5]: method as in PMID 16158943. The conditions noted are these: animal models, compared to DOX and DRB; cited from earlier work.
Series [6] relates to H9c2(2-1) rat cardiomyoblasts. Description: Cytotoxicity assay (MTT, inhibition of cell proliferation). The format is cell-based. The conditions noted are these: 72 h. The procedure:
as §1

The mark [7] stands for this setting: H9c2(2-1) rat cardiomyoblast cells, H9c2(2-1) cells, 72 h exposure, MTT, mean of six experiments ± S.D., read-out: Cytotoxicity IC50.
Where [8] appears, read: H9c2(2-1), parent DOX or DRB vs analog.
[9] abbreviates: H9c2(2-1) cells, 72 h exposure, MTT, mean of six experiments ± S.D., read-out: Cytotoxicity IC50.

For the compound `COc1cccc2c1C(=O)c1c(O)c3c(c(O)c1C2=O)C[C@@](O)(C(=O)CO)C[C@@H]3O[C@H]1C[C@H](N)[C@H](O)[C@H](C)O1` [DOX, doxorubicin, reference compound], the “Kapp (apparent DNA binding constant)” value in series [1] was 18.1 ± 0.41 × 10^5 [M^-1]. Besides, the “Cellular accumulation higher than DOXM” value with H9c2(2-1) cells [2] is “approximately 30%”. Also, in the series with H9c2(2-1) cells [3], the “Cells in G2/M phase” value was determined as 40.6%, the “Cells in S phase” value is 9.0% and the “Cells in G0/G1 phase” value was found to be 50.4%. In addition, in series [4] (setting [7]), the IC50 – broadly, the point on the concentration scale where inhibition reaches its midpoint – at 72 h turned out to be 35 ± 4 nM. Moreover, the Cardiotoxicity in vivo entry in series [5] was “most cardiotoxic”.

With `COc1cccc2c1C(=O)c1c(O)c3c(c(O)c1C2=O)C[C@@](O)(C(=O)CO)C[C@@H]3O[C@H]1C[C@H](N=CN2CCCCCC2)[C@H](O)[C@H](C)O1` [DOXH], in series [1], the “Kapp (apparent DNA binding constant)” value is 7.30 ± 0.14 × 10^5 [M^-1] and the “Kapp relative to parent drug (times lower)” value is on record as 2.5–2.8 times. In addition, in the series on H9c2(2-1) cells [2], the “Accumulation relative to DOXM (times higher)” value was approximately 2 times and the “Accumulation relative to parent drug (times higher)” value was 1.5 times. Also, in the series with H9c2(2-1) cells [3], the “Cells in G2/M phase” value was found to be 13.5%, the “Cells in S phase” value turned out to be 36.4% and the “Cells in G0/G1 phase” value stood at 50.1%. Also, the “Cytotoxic activity of the parent compound relative to this analog (times higher)” value in series [6] (setting [8]) is approximately 2.5 times. In series [4] (setting [9]), the IC50 at 72 h was 87 ± 7 nM. For the same compound, in series [5], the Cardiotoxicity in vivo result is given as “lower cardiotoxicity”.

On to `COc1cccc2c1C(=O)c1c(O)c3c(c(O)c1C2=O)C[C@@](O)(C(=O)CO)C[C@@H]3O[C@H]1C[C@H](N=CN2CCOCC2)[C@H](O)[C@H](C)O1` [DOXM], for which, in series [1], the “Kapp (apparent DNA binding constant)” value is 0.90 ± 0.12 × 10^5 [M^-1] and the “Kapp relative to parent drug (times lower)” value is given as “approximately 20 times”. Moreover, in the series on H9c2(2-1) cells [3], the “Cells in G2/M phase” value is 13.0%, the “Cells in S phase” value came to 33.5% and the “Cells in G0/G1 phase” value was found to be 53.5%. Further, the “Cytotoxic activity of the parent compound relative to this analog (times higher)” value in series [6] (setting [8]) is “approximately 4 times”. The IC50 at 72 h in series [4] (setting [9]) turned out to be 138 ± 18 nM. Further, the Cardiotoxicity in vivo result in series [5] was “lower cardiotoxicity”.

In the case of `COc1cccc2c1C(=O)c1c(O)c3c(c(O)c1C2=O)C[C@@](O)(C(C)=O)C[C@@H]3O[C@H]1C[C@H](N)[C@H](O)[C@H](C)O1` [DRB, daunorubicin, reference compound], the “Kapp (apparent DNA binding constant)” value in series [1] is 11.7 ± 0.22 × 10^5 [M^-1]. The “Cell cycle arrest pattern” value in the series on H9c2(2-1) cells [3] is recorded as “G2/M arrest”. The IC50 at 72 h in series [4] (setting [7]) was 76 ± 7 nM. Also, the Cardiotoxicity in vivo result in series [5] is on record as “most cardiotoxic”.

Consider `COc1cccc2c1C(=O)c1c(O)c3c(c(O)c1C2=O)C[C@@](O)(C(C)=O)C[C@@H]3O[C@H]1C[C@H](N=CN2CCCCCC2)[C@H](O)[C@H](C)O1` [DRBH], for which, in series [1], the “Kapp (apparent DNA binding constant)” value is 4.1 ± 0.08 × 10^5 [M^-1] and the “Kapp relative to parent drug (times lower)” value is reported as 2.5–2.8 times. Besides, the “Accumulation relative to other tested compounds (times higher)” value with H9c2(2-1) cells [2] (other than parent DRB) is recorded as 5–7 times. The “Accumulation relative to parent drug (times higher)” value in the series with H9c2(2-1) cells [2] is given as “more than 1.5 times”. In addition, in the series on H9c2(2-1) cells [3], the “Cell cycle arrest pattern” value was “S phase arrest”. In addition, in series [6] (setting [8]), the “Cytotoxic activity of the parent compound relative to this analog (times higher)” value worked out at 2 times. Moreover, in series [4] (setting [9]), the IC50 at 72 h stood at 172 ± 14 nM. For the same compound, the Cardiotoxicity in vivo entry in series [5] was “lower cardiotoxicity”.

For `COc1cccc2c1C(=O)c1c(O)c3c(c(O)c1C2=O)C[C@@](O)(C(C)=O)C[C@@H]3O[C@H]1C[C@H](N=CN2CCOCC2)[C@H](O)[C@H](C)O1` [DRBM], in series [1], the “Kapp (apparent DNA binding constant)” value was 0.64 ± 0.03 × 10^5 [M^-1] and the “Kapp relative to parent drug (times lower)” value was “approximately 20 times”. The “Cell cycle arrest pattern” value with H9c2(2-1) cells [3] is recorded as “S phase arrest”. The “Cytotoxic activity of the parent compound relative to this analog (times higher)” value in series [6] (rat) is recorded as 8 times. The IC50 at 72 h in series [4] worked out at 626 ± 18 nM. In addition, the Cardiotoxicity in vivo result in series [5] is “lower cardiotoxicity”.
